Results as given in patent US20050014765A1, “Aryl-heteroaromatic products, compositions comprising them and use” (Aventis Pharma S.A., priority 2003, published 2005).
Counter-ions that a name gives are not always drawn.

What was measured:
[1] = target: T1, Tubulin purified from pig brains (Sus scrofa, UniProt P02550+P02554); assay: Assessment of the inhibition of tubulin polymerization (turbidimetry at 350 nm); assay type: biochemical; details: concentration which inhibits the rate of polymerization by 50%; tubulin 1 mg/ml, 37° C.; read-out: Inhibition of tubulin polymerization IC 50
T1 construct: Tubulin is purified from pig brains according to published methods; from tissue; host or cells: pig brain
T1 sequence (P02550 whole entry): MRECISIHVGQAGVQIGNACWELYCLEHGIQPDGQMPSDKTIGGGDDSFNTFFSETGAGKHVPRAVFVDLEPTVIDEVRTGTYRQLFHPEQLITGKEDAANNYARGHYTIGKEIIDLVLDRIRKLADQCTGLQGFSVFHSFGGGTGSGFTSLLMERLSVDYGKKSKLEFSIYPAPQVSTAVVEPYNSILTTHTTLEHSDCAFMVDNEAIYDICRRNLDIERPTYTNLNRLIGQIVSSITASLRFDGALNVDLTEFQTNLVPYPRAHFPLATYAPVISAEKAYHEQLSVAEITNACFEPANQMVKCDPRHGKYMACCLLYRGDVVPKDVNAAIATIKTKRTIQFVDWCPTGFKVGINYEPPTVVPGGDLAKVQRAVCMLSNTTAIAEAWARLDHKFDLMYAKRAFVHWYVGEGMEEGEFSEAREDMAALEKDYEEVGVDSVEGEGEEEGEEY
T1 sequence (P02554 whole entry): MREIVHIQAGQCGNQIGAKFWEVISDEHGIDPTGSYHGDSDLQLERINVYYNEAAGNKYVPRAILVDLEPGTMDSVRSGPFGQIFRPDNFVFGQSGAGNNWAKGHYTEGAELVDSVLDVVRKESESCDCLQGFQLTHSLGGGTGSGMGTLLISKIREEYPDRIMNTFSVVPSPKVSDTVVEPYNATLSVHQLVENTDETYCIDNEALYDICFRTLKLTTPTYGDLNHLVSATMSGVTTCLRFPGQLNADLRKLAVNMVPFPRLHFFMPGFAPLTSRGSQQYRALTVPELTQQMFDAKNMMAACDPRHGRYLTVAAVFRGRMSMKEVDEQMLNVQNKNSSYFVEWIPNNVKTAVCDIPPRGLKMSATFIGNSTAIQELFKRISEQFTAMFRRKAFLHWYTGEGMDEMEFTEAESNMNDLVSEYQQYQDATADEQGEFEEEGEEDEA
Method: Assessment of the Inhibition of Tubulin Polymerization
Tubulin is purified from pig brains according to published methods (Shelanski et al., 1973, Proc. Natl. Acad. Sci. USA, 70, 765-768. Weingarten et al., 1975, Proc. Natl. Acad. Sci. USA, 72, 1858-1862). Briefly, the brains are ground and centrifuged in an extraction buffer. The tubulin, present in the extract supernatant is subjected to two successive cycles of polymerization at 37° C. and depolymerization at 4° C., before being separated from the MAPs (Microtubule Associated Proteins) by chromatography on a phosphocellulose P11 column (Whatman). The tubulin thus isolated is more than 95% pure. It is stored in a buffer known as RB/2 30% glycerol, the composition of which is 50 mM MES-NaOH [2-(N-morpholino)ethanesulfonic acid], pH 6.8; 0.25 mM MgCl2; 0.5 mM EGTA; 30% (v/v) glycerol, 0.2 mM GTP (guanosine 5′-triphosphate).
The polymerization of the tubulin into microtubules is monitored by turbidimetry as follows: the tubulin is adjusted to a concentration of 10 μm (1 mg/ml) in the RB/2 30% glycerol buffer, to which are added 1 mM GTP and 6 mM MgCl2. The polymerization is initiated by increasing the temperature from 6° C. to 37° C. in a cuvette with a 1 cm optical pathlength, placed in a UVIKON 931 spectrophotometer (Kontron) equipped with a thermostatically-regulated cuvette holder. The increase in turbidity of the solution is monitored at 350 nm.
The products are dissolved at 10 mM in DMSO and added at variable concentrations (0.5 to 10 μm) to the tubulin solution before polymerization. The IC50 is defined as the concentration of the product which inhibits the rate of polymerization by 50%.

HCT116 cells = assay: Inhibition of proliferation of the HCT116 human colon tumor line ([14C]-thymidine incorporation); assay type: cell-based; details: HCT-116, 48 hours incubation at 37° C., read-out: Inhibition of HCT116 proliferation IC 50
Method: Test for Determining the Inhibition of Proliferation of the HCT116 Human Colon Tumor Line
The proliferation of HCT116 cells is evaluated by mesuring the incorporation of [^14C]-thymidine in the following way. The HCT166 cells (from the ATCC) are cultured in a DMEM medium (Gibco) which contains 10% of fetal calf serum and antibiotics (1% penicillin, 1% streptomycin). To perform the proliferation test, the cells are seeded into 96-well cytostar microplates (Amersham) at the rate of 5000 cells per well. The [^14C]-thymidine (0.1 μCi/well) and the products to be evaluated are subsequently added. Variable concentrations of products up to 10 μM are used; the DMSO (solvent used to dissolve the products) should not exceed 0.5% in the medium. 48 hours after incubation at 37° C., the radioactivity incorporated into the cells is measured by counting the plate in a Tri-Lux counter (Wallac). The IC50 is defined as the concentration of product which reduces the radioactivity by 50% compared with an untreated control. A product with an IC50 of less than 10 μm is regarded as cytotoxic.

Row | IC50 [1] [nM] | IC50 (HCT116 cells) [nM] | SMILES
1 | 2000 | 29.6 | O=C(c1cncn1-c1ccccc1)N1CCN(c2cccc(Cl)c2)CC1 [Example 1, [4-(3-Chlorophenyl)piperazin-1-yl](1-phenyl-1H-imidazol-5-yl)methanone]
2 | 22000 | 8750 | O=C(c1ncoc1-c1ccccc1)N1CCN(c2cccc(Cl)c2)CC1 [Example 2, [4-(3-Chlorophenyl)piperazin-1-yl](5-phenyl-1,3-oxazol-4-yl)methanone]
3 | 1000 | 6.8 | O=C(c1[nH]cnc1-c1ccccc1)N1CCN(c2cccc(Cl)c2)CC1 [Example 3, [4-(3-Chlorophenyl)piperazin-1-yl](4-phenyl-1H-imidazol-5-yl)methanone]
4 | 2000 | 52.5 | O=C(c1sccc1-c1ccccc1)N1CCN(c2cccc(Cl)c2)CC1 [Example 4, [4-(3-Chlorophenyl)piperazin-1-yl](3-phenylthiophen-2-yl)methanone]
5 | 11500 | – | COc1cccc(N2CCN(C(=O)c3ccoc3-c3ccc(Cl)cc3)CC2)c1 [Example 5, [4-(3-Methoxyphenyl)piperazin-1-yl][2-(4-chlorophenyl)furan-3-yl]methanone]
6 | 690 | 34 | O=C(c1[nH]ccc1-c1ccccc1)N1CCN(c2cccc(Cl)c2)CC1 [Example 6, [4-(3-Chlorophenyl)piperazin-1-yl](3-phenyl-1H-pyrrol-2-yl)methanone]
7 | 12800 | – | Cn1ccc(-c2ccccc2)c1C(=O)N1CCN(c2cccc(Cl)c2)CC1 [Example 7, [4-(3-Chlorophenyl)piperazin-1-yl](1-methyl-3-phenyl-1H-pyrrol-2-yl)-methanone]
8 | 1200 | 2.9 | COc1cc(OC)cc(N2CCN(C(=O)c3[nH]ccc3-c3ccccc3)CC2)c1 [Example 8, [4-(3,5-Dimethoxyphenyl)piperazin-1-yl](3-phenyl-1H-pyrrol-2-yl)methanone]
9 | 3100 | 88.5 | O=C(c1[nH]cnc1-c1ccccc1)N1CCN(c2cccnc2)CC1 [Example 10, [4-(Pyridin-3-yl)piperazin-1-yl](4-phenyl-1H-imidazol-5-yl)methanone]
10 | 2400 | 45.7 | COc1cc(OC)cc(N2CCN(C(=O)c3cncn3-c3ccccc3)CC2)c1 [Example 11, [4-(3,5-Dimethoxyphenyl)piperazin-1-yl](1-phenyl-1H-imidazol-5-yl)-methanone hydrochloride]
11 | 3500 | 1190 | CC(=O)Nc1cccc(N2CCN(C(=O)c3[nH]cnc3-c3ccccc3)CC2)c1 [Example 12, [4-(3-Acetylaminophenyl)piperazin-1-yl](4-phenyl-1H-imidazol-5-yl)methanone]
12 | 2900 | 90.9 | N#Cc1cccc(N2CCN(C(=O)c3cncn3-c3ccccc3)CC2)c1 [Example 13, [4-(3-Cyanophenyl)piperazin-1-yl](1-phenyl-1H-imidazol-5-yl)methanone]
13 | 1200 | 7.4 | N#Cc1cccc(N2CCN(C(=O)c3[nH]cnc3-c3ccccc3)CC2)c1 [Example 14, [4-(3-Cyanophenyl)piperazin-1-yl](4-phenyl-1H-imidazol-5-yl)methanone]
14 | 9700 | – | COc1cc(OC)cc(N2CCN(C(=O)c3cc[nH]c3-c3ccccc3)CC2)c1 [Example 21, [4-(3,5-Dimethoxyphenyl)piperazin-1-yl](2-phenyl-1H-pyrrol-3-yl)methanone]
15 | 25000 | – | CN(C)CCn1cc(C(=O)N2CCN(c3cccc(Cl)c3)CC2)c(-c2ccccc2)c1 [Example 31, [4-(3-Chlorophenyl)piperazin-1-yl][1-(2-dimethylaminoethyl)-4-phenyl-1H-pyrrol-3-yl]methanone hydrochloride]
16 | 2740 | – | O=C(O)CCn1cc(C(=O)N2CCN(c3cccc(Cl)c3)CC2)c(-c2ccccc2)c1 [Example 32, 3-{3-[4-(3-Chlorophenyl)piperazin-1-ylcarbonyl]-4-phenylpyrrol-1-yl}-propionic acid]

Row | IC50 [1] [nM] | IC50 (HCT116 cells) [nM] | SMILES
17 | 1060 | – | NC(=O)c1cccc(N2CCN(C(=O)c3[nH]c(S)nc3-c3ccccc3)CC2)c1 [Example 44, 3-[4-(2-Mercapto-4-phenyl-1H-imidazol-5-ylcarbonyl)piperazin-1-yl]benzamide]
18 | 4850 | – | COc1cc(OC)cc(N2CCN(C(=O)c3cn(Cc4cscn4)cc3-c3ccccc3)CC2)c1 [Example 45, [4-(3,5-Dimethoxyphenyl)piperazin-1-yl][1-(thiazol-4-yl)methyl-4-phenyl-1H-pyrrol-3-yl]methanone]
19 | 1570 | – | COC(=O)Cn1ccc(C(=O)N2CCN(c3cc(OC)cc(OC)c3)CC2)c1-c1ccccc1 [Example 49, Methyl 2-{3-[4-(3,5-dimethoxyphenyl)piperazin-1-yl]carbonyl-2-phenyl-1H-pyrrol-1-yl}acetate]
20 | 13400 | – | COc1cc(OC)cc(N2CCN(C(=O)c3ccn(Cc4cccnc4)c3-c3ccccc3)CC2)c1 [Example 64, [4-(3,5-Dimethoxyphenyl)piperazin-1-yl][1-(3-pyridyl)methyl-2-phenyl-1H-pyrrol-3-yl]methanone]
21 | 13500 | – | COC(=O)Cn1cc(C(=O)N2CCN(c3cccc(C(N)=O)c3)CC2)c(-c2ccccc2)c1 [Example 65]
22 | 13900 | – | CS(=O)(=O)c1nc(-c2ccccc2)c(C(=O)N2CCN(c3cccc(C(N)=O)c3)CC2)[nH]1 [Example 71, 3-[4-(2-Methylsulfonyl-4-phenyl-1H-imidazol-4-ylcarbonyl)piperazin-1-yl]benzamide]
23 | 3610 | – | NC(=O)c1cccc(N2CCN(C(=O)c3ccn(CCO)c3-c3ccccc3)CC2)c1 [Example 77, 3-[4-(1-Hydroxyethyl-2-phenyl-1H-pyrrol-3-ylcarbonyl)piperazin-1-yl]-benzamide]
24 | 7760 | – | Cn1ccc(C(=O)N2CCN(c3cccc(CO)c3)CC2)c1-c1ccccc1 [Example 80, [4-(3-Hydroxymethylphenyl)piperazin-1-yl](1-methyl-2-phenyl-1H-pyrrol-3-yl)-methanone]
25 | 1410 | – | O=C(c1[nH]c(C(F)(F)F)nc1-c1ccccc1)N1CCN(c2cccc(CO)c2)CC1 [Example 83, [4-(3-Hydroxymethylphenyl)piperazin-1-yl](2-trifluoromethyl-4-phenyl-1H-imidazol-5-yl)methanone]
26 | 574 | – | N#Cc1cccc(N2CCN(C(=O)c3[nH]c(C(F)(F)F)nc3-c3ccccc3)CC2)c1 [Example 84, 3-[4-(2-Trifluoromethyl-4-phenyl-1H-imidazol-5-ylcarbonyl)piperazin-1-yl]-benzonitrile]
27 | 6410 | – | O=C(c1cc[nH]c1-c1ccccc1)N1CCN(c2cccc(CO)c2)CC1 [Example 86, [4-(3-Hydroxymethylphenyl)piperazin-1-yl](2-phenyl-1H-pyrrol-3-yl)methanone]
28 | 582 | – | N#Cc1cccc(N2CCN(C(=O)c3cn(CCO)cc3-c3ccccc3)CC2)c1 [Example 87, 3-[4-(1-Hydroxyethyl-4-phenyl-1H-pyrrol-3-ylcarbonyl)piperazin-1-yl]-benzonitrile]
29 | 2990 | – | O=C(c1ccn(CCO)c1-c1ccccc1)N1CCN(c2cccc(CO)c2)CC1 [Example 89]
30 | 95 | – | COCCNc1nc(-c2ccccc2)c(C(=O)N2CCN(c3cc(C)cc(C)c3)CC2)s1 [Example 90, [4-(3,5-Dimethylphenyl)piperazin-1-yl][2-(2-methoxyethyl)amino-4-phenylthiazol-5-yl]methanone]
31 | 89 | – | COCCNc1nc(-c2ccccc2)c(C(=O)N2CCN(c3cc(OC)cc(OC)c3)CC2)s1 [Example 91, [4-(3,5-Dimethoxyphenyl)piperazin-1-yl][2-(2-methoxyethyl)amino-4-phenylthiazol-5-yl]methanone]
32 | 167 | – | N#Cc1cccc(N2CCN(C(=O)c3cn(Cc4cccnc4)cc3-c3ccccc3)CC2)c1 [Example 92, 3-{4-[1-(Pyridin-3-yl)methyl-4-phenyl-1H-pyrrol-3-ylcarbonyl]piperazin-1-yl}-benzonitrile]
